According to EP0252380B1, “Antibiotic LL-E19020 alpha and beta” (AMERICAN CYANAMID COMPANY, priority 1986, dated 1988):
Marks after values point to notes of the source that are not given here.

Experiment: Weight gains and feed efficiency in broiler chicks treated with E19020 alpha (Table IX A)
Assay type: in vivo
Details: for FEED/GAIN 0-3 WEEKS: control 1.43; for FEED/GAIN 0-7 WEEKS: control 1.99; for WEIGHT GAIN IN GRAMS 0-3 WEEKS: control 608; for WEIGHT GAIN IN GRAMS 0-7 WEEKS: control 2145
Method: Five male and five female one day old Peterson X Arbor Acres chicks are allotted to starter battery cages by weight. Cages are randomized to treatment groups with seven replicates per treatment. […] The positive standard is penicillin at 200 ppm. Diets are prepared weekly.

For `C/C=C\C=C\[C@@H]1O[C@](O)([C@H](CO[C@H]2C[C@@H](OC)[C@@H](O[C@@H]3C[C@@H](OC)[C@@H](O[C@H]4C[C@H](OC)[C@H](O)[C@H](C)O4)[C@H](C)O3)[C@@H](C)O2)C(=O)NC/C=C/C=C(\C)[C@@H](OC)[C@H](C)[C@H]2C[C@H](O)[C@H](/C=C/C=C/C=C/C(=O)O)O2)[C@H](OC(=O)Cc2ccccc2)[C@H](O)C1(C)C` [LL-E19020 alpha], the “FEED/GAIN % IMPROVEMENT OVER CONTROLS 0-3 WEEKS” value (6.25 PPM) was 3.5%, the “FEED/GAIN % IMPROVEMENT OVER CONTROLS 0-7 WEEKS” value (6.25 PPM) was 5.0% and the “WEIGHT GAIN % IMPROVEMENT OVER CONTROLS 0-3 WEEKS” value (6.25 PPM) was 4.4%. For the same molecule, the “WEIGHT GAIN % IMPROVEMENT OVER CONTROLS 0-7 WEEKS” value (6.25 PPM) was 1.8%, the “FEED/GAIN 0-3 WEEKS” value (6.25 PPM) was 1.38** and the “FEED/GAIN 0-7 WEEKS” value (6.25 PPM) was 1.89**. The “WEIGHT GAIN IN GRAMS 0-3 WEEKS” value (6.25 PPM) was 635* GRAMS, the “WEIGHT GAIN IN GRAMS 0-7 WEEKS” value (6.25 PPM) was 2183 GRAMS and the “FEED/GAIN % IMPROVEMENT OVER CONTROLS 0-3 WEEKS” value (12.5 PPM) was 3.5%. For the same molecule, the “FEED/GAIN % IMPROVEMENT OVER CONTROLS 0-7 WEEKS” value (12.5 PPM) was 4.0%, the “WEIGHT GAIN % IMPROVEMENT OVER CONTROLS 0-3 WEEKS” value (12.5 PPM) was 6.3% and the “WEIGHT GAIN % IMPROVEMENT OVER CONTROLS 0-7 WEEKS” value (12.5 PPM) was 2.5%. For the same molecule, the “FEED/GAIN 0-3 WEEKS” value (12.5 PPM) was 1.38**, the “FEED/GAIN 0-7 WEEKS” value (12.5 PPM) was 1.91** and the “WEIGHT GAIN IN GRAMS 0-3 WEEKS” value (12.5 PPM) was 647* GRAMS. The “WEIGHT GAIN IN GRAMS 0-7 WEEKS” value (12.5 PPM) was 2198 GRAMS, the “FEED/GAIN % IMPROVEMENT OVER CONTROLS 0-3 WEEKS” value (25 PPM) was 3.5% and the “FEED/GAIN % IMPROVEMENT OVER CONTROLS 0-7 WEEKS” value (25 PPM) was 5.0%. The “WEIGHT GAIN % IMPROVEMENT OVER CONTROLS 0-3 WEEKS” value (25 PPM) was 8.4%, the “WEIGHT GAIN % IMPROVEMENT OVER CONTROLS 0-7 WEEKS” value (25 PPM) was 5.7% and the “FEED/GAIN 0-3 WEEKS” value (25 PPM) was 1.38**. For the same molecule, the “FEED/GAIN 0-7 WEEKS” value (25 PPM) was 1.89**, the “WEIGHT GAIN IN GRAMS 0-3 WEEKS” value (25 PPM) was 659** GRAMS and the “WEIGHT GAIN IN GRAMS 0-7 WEEKS” value (25 PPM) was 2267* GRAMS. The “FEED/GAIN % IMPROVEMENT OVER CONTROLS 0-3 WEEKS” value (50 PPM) was 2.8%, the “FEED/GAIN % IMPROVEMENT OVER CONTROLS 0-7 WEEKS” value (50 PPM) was 4.0% and the “WEIGHT GAIN % IMPROVEMENT OVER CONTROLS 0-3 WEEKS” value (50 PPM) was 5.6%. The “WEIGHT GAIN % IMPROVEMENT OVER CONTROLS 0-7 WEEKS” value (50 PPM) was 2.8%, the “FEED/GAIN 0-3 WEEKS” value (50 PPM) was 1.39* and the “FEED/GAIN 0-7 WEEKS” value (50 PPM) was 1.91**. For the same molecule, the “WEIGHT GAIN IN GRAMS 0-3 WEEKS” value (50 PPM) was 642* GRAMS, the “WEIGHT GAIN IN GRAMS 0-7 WEEKS” value (50 PPM) was 2206 GRAMS and the “FEED/GAIN % IMPROVEMENT OVER CONTROLS 0-3 WEEKS” value (100 PPM) was 5.6%. For the same molecule, the “FEED/GAIN % IMPROVEMENT OVER CONTROLS 0-7 WEEKS” value (100 PPM) was 4.0%, the “WEIGHT GAIN % IMPROVEMENT OVER CONTROLS 0-3 WEEKS” value (100 PPM) was 7.3% and the “WEIGHT GAIN % IMPROVEMENT OVER CONTROLS 0-7 WEEKS” value (100 PPM) was 2.8%. For the same molecule, the “FEED/GAIN 0-3 WEEKS” value (100 PPM) was 1.35**, the “FEED/GAIN 0-7 WEEKS” value (100 PPM) was 1.91** and the “WEIGHT GAIN IN GRAMS 0-3 WEEKS” value (100 PPM) was 652** GRAMS. For the same molecule, the “WEIGHT GAIN IN GRAMS 0-7 WEEKS” value (100 PPM) was 2204 GRAMS.
